Data taken from PMC7578299, “The antiviral effects of baloxavir marboxil against influenza A virus infection in ferrets” (Influenza and Other Respiratory Viruses, 2020).
Values joined by “and” are separate entries in the source; they are usually repeats but may differ in a detail not shown here. Identical values can stand only once. Like-named read-outs stand apart in the source and are kept apart here.

How the values were obtained:
[1] = system: Influenza A virus A/Kadoma/3/2006 (H1N1); assay: Experiment 1: infected ferrets, treatment starting at Day 1 p.i. (virus titer in nasal washes, body temperature); assay type: in vivo, ferret; conditions: for reduction of virus titers by Day 2: treatment at Day 1 p.i.
[2] = Pharmacokinetic analysis in ferrets after a single oral administration of BXM; assay type: in vivo, ferret; conditions: for concentration at 24 h: ferret, oral, read-out: C 24 h; for concentration at 24 h / AUC(0-t) / Cmax / Tmax: plasma; for AUC(0-t) / Cmax / Tmax: po
Description: One day prior to administration, group assignment was carried out taking body weight into account. Under isoflurane anesthesia, fasted ferrets (four per group) received BXM (10 or 30 mg/5 mL/kg) suspension orally using an intragastric tube. Blood samples were collected at 0.5, 1, 2, 4, 6, 8, and 24 hours after single oral administration of BXM and centrifuged to obtain plasma. The concentrations of BXA and BXM in plasma were determined by liquid chromatography‐tandem mass spectrometry (LC‐MS/MS). The lower limit of quantification of BXA and BXM in ferret plasma was 0.5 ng/mL. The pharmacokinetic parameters of BXA and BXM were calculated using non‐compartmental analysis module in Phoenix WinNonlin software (version 8.0; Certara LP) (https://onlinehelp.certara.com/phoenix/8.2/topics/nca.htm) based on a non‐compartment model analysis with uniform weighting.

[3] = Stability in plasma, monkey; assay type: in vitro ADME; conditions: for % Residual in plasma: BXM 200 ng/mL, 37°C, mean of duplicate; for % Residual in plasma Individual value: BXM, duplicates
Description: (§1) Approximately 30 mL of blood from Japanese male healthy volunteers was collected and centrifuged to obtain plasma. Blood samples from ferrets, rats, dogs, and monkeys were collected under anesthesia and centrifuged to obtain plasma. BXM was added to reach a final concentration of 200 ng/mL to all pooled plasma samples per species. After incubation for 5, 15, and 30 minutes at 37°C, twofold volume of ice‐cold acetonitrile/methanol (1:1, v/v) was added to the plasma samples to stop further reactions, which were then centrifuged at 1800 g for 10 minutes prior to LC‐MS/MS analysis of BXM in the supernatants.

Stability in plasma, rat = assay type: in vitro ADME; conditions: for % Residual in plasma: BXM 200 ng/mL, 37°C, mean of duplicate; for % Residual in plasma Individual value: BXM, duplicates
Description: as §1

[4] = Stability in plasma, ferret; assay type: in vitro ADME; conditions: for % Residual in plasma: BXM 200 ng/mL, 37°C, mean of duplicate; for % Residual in plasma Individual value: BXM, duplicates
Description: as §1

[5] = system: Influenza A virus A/Kadoma/3/2006 (H1N1); assay: Experiment 2: infected ferrets, treatment starting at Day 2 p.i. (virus titer in nasal washes, body temperature); conditions: treatment from Day 2 p.i.; BXM 10 mg/kg twice daily 1 day
influenza virus = system: influenza virus; parameters: method as in PMID 30288682; conditions: patients, cited from earlier work
Stability in plasma, dog = assay type: in vitro ADME; conditions: for % Residual in plasma: BXM 200 ng/mL, 37°C, mean of duplicate; for % Residual in plasma Individual value: BXM, duplicates
Description: as §1

[6] = Metabolic stability in liver microsomes, rat; assay type: in vitro ADME; conditions: for % Residual in liver microsome: 0.5 mg/mL, 2 μmol/L, 37°C, mean of duplicates; for % Residual in liver microsome Individual value: duplicates
Description: Liver microsomes were prepared from ferrets, rats, dogs, and monkeys, as previously described. ^28 Human liver microsomes were obtained from Sekisui‐XenoTech, LLC and pooled (n = 15). Metabolic stability of the compounds in liver microsomes was tested in duplicate. Oseltamivir and cefcapene pivoxil were used as reference compounds. Liver microsomes at 0.5 mg/mL concentration (final volume of 0.2 mL) were incubated in Tris‐HCl buffer (pH 7.4), containing 50 mmol/L Tris‐HCl, 150 mmol/L KCl, 10 mmol/L MgCl2. The hydrolysis reaction was initiated by applying the test compound solution (final concentration 2 μmol/L). After incubation for 10, 20, and 30 minutes at 37°C, the hydrolysis was terminated by the addition of twofold volume of ice‐cold acetonitrile/methanol (1:1, v/v). Samples were centrifuged at 3000 rpm for 10 minutes prior to LC‐MS/MS analysis of compounds in the supernatants.

[7] = Stability in plasma, human; assay type: in vitro ADME; conditions: for % Residual in plasma: BXM 200 ng/mL, 37°C, mean of duplicate; for % Residual in plasma Individual value: BXM, duplicates
Description: as §1

[8] = single oral BXM 10 mg/kg, individual ferrets (Ferret-01 to Ferret-04)
[9] = single oral BXM 30 mg/kg, individual ferrets (Ferret-05 to Ferret-08)

COC(=O)OCOc1c2n(ccc1=O)N([C@@H]1c3ccccc3SCc3c1ccc(F)c3F)[C@@H]1COCCN1C2=O [BXM, Baloxavir marboxil]
reduction of virus titers by Day 2 ([1]; BXM 10 mg/kg twice daily): ≥ 3 log10 of the 50% tissue culture infective doses | reduction of virus titers by Day 2 ([1]; BXM 30 mg/kg twice daily): ≥ 3 log10 of the 50% tissue culture infective doses | virus titer in nasal washes ([1]; Day 2 p.i., BXM 30 mg/kg twice daily for 1 day from Day 1 p.i., undetectable level): < 0.5 log10 TCID50/mL | concentration at 24 h ([2]; 10 mg/kg, single oral BXM 10 mg/kg, 5% SDS water vehicle, mean of four ferrets): 28.6 ± 30.4 ng/mL | concentration at 24 h ([2]; 10 mg/kg, single oral BXM 10 mg/kg, mean of four ferrets): 50.1 ± 53.3 nM | concentration at 24 h ([2]; 30 mg/kg, single oral BXM 30 mg/kg, 5% SDS water vehicle, mean of four ferrets): 36.1 ± 12.3 ng/mL | concentration at 24 h ([2]; 30 mg/kg, single oral BXM 30 mg/kg, mean of four ferrets): 63.1 ± 21.5 nM | AUC(0-t) ([2]; 10 mg/kg, single oral BXM 10 mg/kg, 5% SDS water vehicle, mean of four ferrets, read-out: AUC0-24 h): 715 ± 758 ng·h/mL | Cmax ([2]; 10 mg/kg, single oral BXM 10 mg/kg, 5% SDS water vehicle, mean of four ferrets, read-out: C max): 165 ± 179 ng/mL | Tmax ([2]; 10 mg/kg, single oral BXM 10 mg/kg, 5% SDS water vehicle, mean of four ferrets, read-out: T max): 1.13 ± 0.63 h | AUC(0-t) ([2]; 10 mg/kg, single oral BXM 10 mg/kg, mean of four ferrets, read-out: AUC0-24 h): 1.25 ± 1.33 µM·h | Cmax ([2]; 10 mg/kg, single oral BXM 10 mg/kg, mean of four ferrets, read-out: C max): 289 ± 312 nM | AUC(0-t) ([2]; 30 mg/kg, single oral BXM 30 mg/kg, 5% SDS water vehicle, mean of four ferrets, read-out: AUC0-24 h): 1260 ± 150 ng·h/mL | Cmax ([2]; 30 mg/kg, single oral BXM 30 mg/kg, 5% SDS water vehicle, mean of four ferrets, read-out: C max): 298 ± 88 ng/mL | Tmax ([2]; 30 mg/kg, single oral BXM 30 mg/kg, 5% SDS water vehicle, mean of four ferrets, read-out: T max): 0.875 ± 0.25 h | AUC(0-t) ([2]; 30 mg/kg, single oral BXM 30 mg/kg, individual ferrets (Ferret-05 to Ferret-08), read-out: AUC0-24hr, individual data): 1450 ng·h/mL | Cmax ([2]; 30 mg/kg, single oral BXM 30 mg/kg, individual ferrets (Ferret-05 to Ferret-08), read-out: Cmax, individual data): 392 ng/mL | Tmax ([2]; 30 mg/kg, single oral BXM 30 mg/kg, individual ferrets (Ferret-05 to Ferret-08), read-out: Tmax, individual data): 1 h | AUC(0-t) ([2]; 30 mg/kg, single oral BXM 30 mg/kg, mean of four ferrets, read-out: AUC0-24 h): 2.21 ± 0.25 µM·h | Cmax ([2]; 30 mg/kg, single oral BXM 30 mg/kg, mean of four ferrets, read-out: C max): 522 ± 154 nM | C 24 h ([2]; single oral BXM 10 mg/kg, 5% SDS water vehicle, mean of four ferrets): 28.6 ng/mL | AUC0-24hr, individual data [2, 8]: 174 ng·h/mL and 539 ng·h/mL and 318 ng·h/mL and 1830 ng·h/mL | C24hr, individual data [2, 8]: 3.59 ng/mL and 35.0 ng/mL and 6.75 ng/mL and 69.0 ng/mL | Cmax, individual data [2, 8]: 101 ng/mL and 79.2 ng/mL and 48.6 ng/mL and 431 ng/mL | Tmax, individual data [2, 8]: 0.500 h and 2.00 h | C 24 h ([2]; single oral BXM 30 mg/kg, 5% SDS water vehicle, mean of four ferrets): 36.1 ng/mL | AUC0-24hr, individual data [2, 9]: 1200 ng·h/mL and 1110 ng·h/mL and 1290 ng·h/mL | C24hr, individual data [2, 9]: 22.7 ng/mL and 48.5 ng/mL and 28.7 ng/mL and 44.3 ng/mL | Cmax, individual data [2, 9]: 353 ng/mL and 214 ng/mL and 233 ng/mL | Tmax, individual data [2, 9]: 0.500 h | % Residual in plasma ([3]; 10 min): 82.9% | % Residual in plasma ([3]; 20 min): 71.8% | % Residual in plasma ([3]; 30 min): 55.5% | % Residual in plasma Individual value ([3]; 10 minutes): 81.5% and 84.4% | % Residual in plasma Individual value ([3]; 20 minutes): 71.3% and 72.3% | % Residual in plasma Individual value ([3]; 30 minutes): 56.3% and 54.7% | % Residual in plasma (Stability in plasma, rat; 10 min): 0.0% | % Residual in plasma (Stability in plasma, rat; 20 min): 0.0% | % Residual in plasma (Stability in plasma, rat; 30 min): 0.0% | % Residual in plasma Individual value (Stability in plasma, rat; 10 minutes): 0.0% | % Residual in plasma Individual value (Stability in plasma, rat; 20 minutes): 0.0% | % Residual in plasma Individual value (Stability in plasma, rat; 30 minutes): 0.0% | % Residual in plasma ([4]; 10 min): 94.7% | % Residual in plasma ([4]; 20 min): 90.4% | % Residual in plasma ([4]; 30 min): 77.4% | % Residual in plasma Individual value ([4]; 10 minutes): 94.0% and 95.4% | % Residual in plasma Individual value ([4]; 20 minutes): 90.0% and 90.9% | % Residual in plasma Individual value ([4]; 30 minutes): 77.3% and 77.5% | body temperature changes over time (in words) [5]: a small but significant effect was observed with BXM compared with vehicle on Day 2 | time within which infectious virus titers declined (influenza virus; single weight-based oral dose 40 or 80 mg): ≤ 1 days | time to alleviation of symptoms (in words) (influenza virus; vs placebo and OSP): superior compared with placebo but not significantly different from the effect of OSP treatment | % Residual in plasma (Stability in plasma, dog; 10 min): 91.6% | % Residual in plasma (Stability in plasma, dog; 20 min): 79.7% | % Residual in plasma (Stability in plasma, dog; 30 min): 75.6% | % Residual in plasma Individual value (Stability in plasma, dog; 10 minutes): 97.0% and 86.3% | % Residual in plasma Individual value (Stability in plasma, dog; 20 minutes): 79.0% and 80.5% | % Residual in plasma Individual value (Stability in plasma, dog; 30 minutes): 74.9% and 76.3% | % Residual in liver microsome ([6]; 10 min): 25.3% | % Residual in liver microsome ([6]; 20 min): 4.6% | % Residual in liver microsome ([6]; 30 min): 0.6% | % Residual in liver microsome Individual value ([6]; 10 minutes): 25.3% and 25.2% | % Residual in liver microsome Individual value ([6]; 20 minutes): 4.9% and 4.4% | % Residual in liver microsome Individual value ([6]; 30 minutes): 0.7% and 0.5% | % Residual in plasma ([7]; 10 min): 92.3% | % Residual in plasma ([7]; 20 min): 78.6% | % Residual in plasma ([7]; 30 min): 63.9% | % Residual in plasma Individual value ([7]; 10 minutes): 92.7% and 91.8% | % Residual in plasma Individual value ([7]; 20 minutes): 80.0% and 77.1% | % Residual in plasma Individual value ([7]; 30 minutes): 65.3% and 62.6%
